The values below come from ChEMBL document CHEMBL1201862, “PubChem BioAssay data set” (2004).

A short description of one experiment: cells. The class given is functional.
A further experiment concerns the target Ion channel NompC (Danio rerio, UniProt Q7T1G6). Put plainly: Dose response cell-based high-throughput screening assay for agonists of the transient receptor potential channel N1 (TRPN1). [Related pubchem assays (depositor defined):AID1424, AID1448]. The class given is functional.
Experiment [1] in a line: THP-1 cell cytotoxicity, dose response, cytotoxicity control for non-replicating M. tuberculosis project (AID 489025). The class given is functional.
Another experiment deals with INS1. Description: beta cell apoptosis inhibitors, cytokine rescue, dose response, luminescence, retest (AID 449756).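 Note: cell death triggered by IL-1 beta plus TNF-alpha plus IFN-gamma mixture; protective hits raise ATP signal compared with cytokine alone wells.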 The class given is functional, cell-based. Conditions: Rattus norvegicus.
A further experiment has as its system HeLa. Description: Cytotoxicity counterscreen assay for transcriptional activators of heat shock protein 70 (Hsp70). [Related pubchem assays: 1203, 1252 ]. In kind it is functional. The settings on record: Homo sapiens. On the technique in general: A counterscreen serves to expose hits that act by an unwanted route or on another target.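 Note: cells exposed to compound for 16 hours before readout.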
Experiment [2] addresses T1, Aryl hydrocarbon receptor (Homo sapiens, UniProt P35869).
T1 sequence (P35869 whole entry): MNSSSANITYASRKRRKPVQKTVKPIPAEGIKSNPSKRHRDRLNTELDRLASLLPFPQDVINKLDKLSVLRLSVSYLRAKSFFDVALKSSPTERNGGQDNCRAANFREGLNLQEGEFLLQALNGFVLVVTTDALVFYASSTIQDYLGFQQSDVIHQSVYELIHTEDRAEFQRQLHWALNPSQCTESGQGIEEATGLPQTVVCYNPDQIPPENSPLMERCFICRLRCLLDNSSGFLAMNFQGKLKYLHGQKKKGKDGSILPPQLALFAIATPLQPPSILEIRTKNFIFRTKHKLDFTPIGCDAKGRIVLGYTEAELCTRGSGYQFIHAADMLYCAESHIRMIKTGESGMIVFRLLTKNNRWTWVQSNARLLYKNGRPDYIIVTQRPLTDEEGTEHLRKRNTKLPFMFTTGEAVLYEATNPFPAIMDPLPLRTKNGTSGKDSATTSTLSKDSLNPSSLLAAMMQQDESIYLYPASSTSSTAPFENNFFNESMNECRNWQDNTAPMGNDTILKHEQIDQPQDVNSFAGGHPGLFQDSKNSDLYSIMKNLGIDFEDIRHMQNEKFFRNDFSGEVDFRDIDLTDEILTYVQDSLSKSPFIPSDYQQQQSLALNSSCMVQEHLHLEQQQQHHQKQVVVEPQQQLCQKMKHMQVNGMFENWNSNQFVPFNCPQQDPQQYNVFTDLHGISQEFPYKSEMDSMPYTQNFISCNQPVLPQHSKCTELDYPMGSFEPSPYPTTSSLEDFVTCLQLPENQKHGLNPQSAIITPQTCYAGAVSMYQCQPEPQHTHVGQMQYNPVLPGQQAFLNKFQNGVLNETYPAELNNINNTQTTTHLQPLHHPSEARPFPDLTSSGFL
Put plainly: Luminescence-based cell-based high throughput dose response assay for activators of the Aryl Hydrocarbon Receptor (AHR). [Related pubchem assays: 2796 (Primary screen (AHR activators in singlicate)), 2845 (Confirmation screen (AHR activators in triplicate)), 434939 (Counterscreen (PXR activators in triplicate)), 2804 (Summary (AHR activators))]. The class given is ADME.

A short description of experiment [3]: microbe, parasite or virus in culture. In kind it is functional. The settings on record: Mycobacterium tuberculosis.
The nature of experiment [4]: Vero E6 cell cytotoxicity, dose response, cytotoxicity control for non-replicating M. tuberculosis project, secondary assay (AID 492998). The class given is functional, VeroE6. Conditions: Vero C1008.
Experiment [5] can be described thus: HepG2 cell cytotoxicity, dose response, cytotoxicity control for non-replicating M. tuberculosis project (AID 489018). In kind it is functional. Conditions: Mycobacterium tuberculosis.
The nature of experiment [6]: HepG2 cell cytotoxicity, dose response, cytotoxicity control for Shn3 inhibitor project, CellTiter-Glo, cherry-picked (AID 624134). In kind it is functional, cell-based. (Cellular ATP, detected with luciferase, serves as a proxy for viable cell number.)
For another experiment, the target named is T2, Mucolipin-3 (Homo sapiens, UniProt Q8TDD5).
T2 sequence (Q8TDD5 whole entry): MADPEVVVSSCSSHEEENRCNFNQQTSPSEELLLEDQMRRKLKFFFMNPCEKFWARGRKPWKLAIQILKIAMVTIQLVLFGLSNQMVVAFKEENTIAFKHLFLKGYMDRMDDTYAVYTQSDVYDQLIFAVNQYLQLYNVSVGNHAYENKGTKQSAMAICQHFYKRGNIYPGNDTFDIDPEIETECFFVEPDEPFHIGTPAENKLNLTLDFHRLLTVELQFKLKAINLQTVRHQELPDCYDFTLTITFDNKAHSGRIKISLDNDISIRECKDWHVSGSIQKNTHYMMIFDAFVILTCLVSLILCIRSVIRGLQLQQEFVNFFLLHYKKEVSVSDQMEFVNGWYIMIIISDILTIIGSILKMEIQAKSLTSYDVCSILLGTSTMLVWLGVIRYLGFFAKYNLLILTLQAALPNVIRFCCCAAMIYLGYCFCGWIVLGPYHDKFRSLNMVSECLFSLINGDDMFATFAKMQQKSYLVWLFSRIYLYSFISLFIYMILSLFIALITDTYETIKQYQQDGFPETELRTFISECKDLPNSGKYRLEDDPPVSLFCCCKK
Description: Fluorescence counterscreen assay for […] agonists: dose response cell-based high-throughput screening assay to identify agonists of the transient receptor potential channel ML3 (TRPML3). [Related pubchem assays: 1424, 1448 ]. The class given is functional.

The subject of experiment [7] is HEK293. Put plainly: cells. The settings on record: Homo sapiens.
Experiment [8] in a line: control 3'UTR Renilla luciferase suppression, dose response, counter-screen for Shn3 inhibitor project, cell-based, Clone20-Shn3RL, cherry-picked (AID 624133). In kind it is functional.
For experiment [9], the system named is HEK293. Description: cells. Conditions: Homo sapiens. The source holds these as a separate data set.
Experiment [10] has as its target Beta-2 adrenergic receptor (Homo sapiens, UniProt P07550). Description: beta2AR agonists driving receptor internalization, dose response, cell-based, FAP fluorogen, flow cytometry, cherry pick 1 (AID 588763). In kind it is functional. For orientation: In flow cytometry, cells or beads pass a laser one at a time.
The target of experiment [11] is T3, Type-1 angiotensin II receptor (Homo sapiens, UniProt P30556).
T3 sequence (P30556 whole entry): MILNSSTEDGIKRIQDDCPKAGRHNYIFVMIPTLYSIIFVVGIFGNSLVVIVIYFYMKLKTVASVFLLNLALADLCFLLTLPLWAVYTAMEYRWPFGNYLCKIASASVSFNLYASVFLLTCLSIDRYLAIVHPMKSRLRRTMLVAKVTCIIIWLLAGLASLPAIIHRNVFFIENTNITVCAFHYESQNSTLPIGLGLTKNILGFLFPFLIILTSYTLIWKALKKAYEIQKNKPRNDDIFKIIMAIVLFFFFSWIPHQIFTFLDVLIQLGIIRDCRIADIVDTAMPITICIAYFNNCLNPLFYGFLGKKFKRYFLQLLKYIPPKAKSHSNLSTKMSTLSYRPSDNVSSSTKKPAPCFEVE
Put plainly: AT1 receptor antagonists, dose response, selectivity assay for APJ receptor antagonist project, cell-based, uHTS hits (AID 463214).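 Note: antagonist potency against angiotensin II stimulated AT1 response.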 In kind it is functional.

In another experiment the target is Beta-galactosidase (Escherichia coli, UniProt Q8VNN2). Description: PubChem AID 485352. In kind it is functional.
In a further experiment the target is Exodeoxyribonuclease V (Escherichia coli (strain K12), UniProt P04993+P07648+P08394). Put plainly: E. coli RecBCD inhibitors, dose response, counter-screen for AddAB inhibitor project, absorbance, V66 E. coli, mutant T4 phage (AID 492957). The class given is functional, cell-based, Escherichia coli str. K-12 substr. MG1655.
Experiment [12] in a line: Counterscreen for AddAB inhibitors: absorbance-based bacterial cell-based high throughput dose response assay for inhibitors of bacterial viability. [Related pubchem assays (depositor defined):AID435030, AID449728, AID449731, AID488942, AID488955, AID488956]. The class given is functional.
The next experiment deals with T4, Hexokinase-1 (Homo sapiens, UniProt P19367).
T4 sequence (P19367 whole entry): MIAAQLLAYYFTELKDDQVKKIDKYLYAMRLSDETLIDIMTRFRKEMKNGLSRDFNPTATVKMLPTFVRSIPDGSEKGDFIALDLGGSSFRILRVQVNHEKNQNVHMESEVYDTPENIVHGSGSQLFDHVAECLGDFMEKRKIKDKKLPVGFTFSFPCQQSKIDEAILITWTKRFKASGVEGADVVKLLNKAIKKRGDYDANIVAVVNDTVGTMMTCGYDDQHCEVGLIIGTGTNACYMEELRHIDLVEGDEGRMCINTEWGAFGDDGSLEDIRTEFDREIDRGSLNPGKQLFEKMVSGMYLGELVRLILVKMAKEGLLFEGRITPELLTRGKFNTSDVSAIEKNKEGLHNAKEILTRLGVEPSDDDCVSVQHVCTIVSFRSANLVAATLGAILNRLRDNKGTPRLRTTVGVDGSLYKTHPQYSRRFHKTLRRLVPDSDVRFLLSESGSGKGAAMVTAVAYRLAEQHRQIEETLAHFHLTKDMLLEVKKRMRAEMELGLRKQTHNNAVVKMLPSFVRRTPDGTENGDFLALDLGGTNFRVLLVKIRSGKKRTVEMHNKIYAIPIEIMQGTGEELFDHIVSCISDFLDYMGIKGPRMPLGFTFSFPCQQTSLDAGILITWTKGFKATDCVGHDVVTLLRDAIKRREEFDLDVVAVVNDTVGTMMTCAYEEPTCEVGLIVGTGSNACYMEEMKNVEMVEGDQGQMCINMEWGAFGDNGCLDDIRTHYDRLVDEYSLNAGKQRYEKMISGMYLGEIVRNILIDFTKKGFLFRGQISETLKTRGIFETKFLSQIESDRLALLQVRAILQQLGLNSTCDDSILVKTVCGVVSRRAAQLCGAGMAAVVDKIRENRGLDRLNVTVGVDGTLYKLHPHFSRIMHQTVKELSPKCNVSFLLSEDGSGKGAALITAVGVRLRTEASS
Put plainly: SAR analysis of small molecule inhibitors of hexokinase domain containing I (HKDC1) in the hexokinase 1 selectivity assay. [Related pubchem assays (depositor defined):AID493160, AID493190]. The class given is functional.

The next experiment addresses T5, Hexokinase HKDC1 (Homo sapiens, UniProt Q2TB90).
T5 sequence (Q2TB90 whole entry): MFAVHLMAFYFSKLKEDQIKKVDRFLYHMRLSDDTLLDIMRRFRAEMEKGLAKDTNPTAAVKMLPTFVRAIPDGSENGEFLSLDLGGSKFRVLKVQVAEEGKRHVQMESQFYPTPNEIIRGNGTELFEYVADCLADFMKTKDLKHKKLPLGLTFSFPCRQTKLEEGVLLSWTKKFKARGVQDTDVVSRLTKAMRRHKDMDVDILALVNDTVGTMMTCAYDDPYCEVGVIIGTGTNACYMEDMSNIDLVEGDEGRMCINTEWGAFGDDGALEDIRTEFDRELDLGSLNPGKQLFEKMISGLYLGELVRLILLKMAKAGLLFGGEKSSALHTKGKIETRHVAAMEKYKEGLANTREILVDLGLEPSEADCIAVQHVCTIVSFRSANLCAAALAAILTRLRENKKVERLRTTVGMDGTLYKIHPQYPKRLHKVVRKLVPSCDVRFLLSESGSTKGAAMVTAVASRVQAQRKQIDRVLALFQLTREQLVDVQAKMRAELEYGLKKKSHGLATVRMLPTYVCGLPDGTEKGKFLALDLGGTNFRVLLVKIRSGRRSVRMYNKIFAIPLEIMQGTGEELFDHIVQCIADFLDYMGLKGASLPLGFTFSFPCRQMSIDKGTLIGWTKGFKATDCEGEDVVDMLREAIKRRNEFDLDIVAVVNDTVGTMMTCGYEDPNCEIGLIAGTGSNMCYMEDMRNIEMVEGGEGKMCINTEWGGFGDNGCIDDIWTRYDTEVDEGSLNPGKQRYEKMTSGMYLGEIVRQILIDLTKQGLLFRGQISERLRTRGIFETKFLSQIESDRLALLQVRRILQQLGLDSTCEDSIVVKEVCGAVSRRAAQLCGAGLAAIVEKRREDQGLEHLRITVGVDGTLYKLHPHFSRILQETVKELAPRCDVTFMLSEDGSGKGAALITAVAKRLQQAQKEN
Put plainly: SAR analysis of small molecule inhibitors of hexokinase domain containing I (HKDC1). [Related pubchem assays (depositor defined):AID493160, AID493190]. In kind it is functional.

Structures are written as SMILES. Activity calls are given as the source filed them.

Sequence of Beta-2 adrenergic receptor (P07550 whole entry): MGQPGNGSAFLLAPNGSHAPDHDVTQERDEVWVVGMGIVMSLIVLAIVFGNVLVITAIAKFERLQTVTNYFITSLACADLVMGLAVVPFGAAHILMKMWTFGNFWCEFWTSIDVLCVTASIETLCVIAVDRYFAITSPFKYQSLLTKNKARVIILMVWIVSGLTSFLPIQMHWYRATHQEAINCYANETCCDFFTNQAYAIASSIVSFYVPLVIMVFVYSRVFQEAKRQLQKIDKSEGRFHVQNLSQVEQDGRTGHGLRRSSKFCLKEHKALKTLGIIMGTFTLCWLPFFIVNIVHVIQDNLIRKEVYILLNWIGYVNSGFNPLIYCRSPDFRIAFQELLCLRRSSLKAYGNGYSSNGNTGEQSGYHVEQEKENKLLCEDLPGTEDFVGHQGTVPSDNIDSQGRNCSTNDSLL
Sequence of Exodeoxyribonuclease V (P04993 whole entry): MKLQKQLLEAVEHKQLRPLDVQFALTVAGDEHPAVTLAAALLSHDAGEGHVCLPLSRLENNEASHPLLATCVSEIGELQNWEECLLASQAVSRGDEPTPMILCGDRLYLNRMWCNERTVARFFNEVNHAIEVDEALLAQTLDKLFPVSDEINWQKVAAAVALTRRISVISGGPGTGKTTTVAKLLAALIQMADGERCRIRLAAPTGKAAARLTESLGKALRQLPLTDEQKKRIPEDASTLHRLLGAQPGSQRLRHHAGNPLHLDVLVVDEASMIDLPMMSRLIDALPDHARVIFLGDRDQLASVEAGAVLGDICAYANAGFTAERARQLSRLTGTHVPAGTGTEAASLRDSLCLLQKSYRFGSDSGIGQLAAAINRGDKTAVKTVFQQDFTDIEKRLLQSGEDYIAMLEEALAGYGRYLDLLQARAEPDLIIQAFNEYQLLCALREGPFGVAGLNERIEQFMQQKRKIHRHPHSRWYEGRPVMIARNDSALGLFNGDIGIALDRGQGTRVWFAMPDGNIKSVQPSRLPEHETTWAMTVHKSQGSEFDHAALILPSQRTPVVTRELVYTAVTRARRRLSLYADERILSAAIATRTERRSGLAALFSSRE
Sequence of Exodeoxyribonuclease V (P07648 whole entry): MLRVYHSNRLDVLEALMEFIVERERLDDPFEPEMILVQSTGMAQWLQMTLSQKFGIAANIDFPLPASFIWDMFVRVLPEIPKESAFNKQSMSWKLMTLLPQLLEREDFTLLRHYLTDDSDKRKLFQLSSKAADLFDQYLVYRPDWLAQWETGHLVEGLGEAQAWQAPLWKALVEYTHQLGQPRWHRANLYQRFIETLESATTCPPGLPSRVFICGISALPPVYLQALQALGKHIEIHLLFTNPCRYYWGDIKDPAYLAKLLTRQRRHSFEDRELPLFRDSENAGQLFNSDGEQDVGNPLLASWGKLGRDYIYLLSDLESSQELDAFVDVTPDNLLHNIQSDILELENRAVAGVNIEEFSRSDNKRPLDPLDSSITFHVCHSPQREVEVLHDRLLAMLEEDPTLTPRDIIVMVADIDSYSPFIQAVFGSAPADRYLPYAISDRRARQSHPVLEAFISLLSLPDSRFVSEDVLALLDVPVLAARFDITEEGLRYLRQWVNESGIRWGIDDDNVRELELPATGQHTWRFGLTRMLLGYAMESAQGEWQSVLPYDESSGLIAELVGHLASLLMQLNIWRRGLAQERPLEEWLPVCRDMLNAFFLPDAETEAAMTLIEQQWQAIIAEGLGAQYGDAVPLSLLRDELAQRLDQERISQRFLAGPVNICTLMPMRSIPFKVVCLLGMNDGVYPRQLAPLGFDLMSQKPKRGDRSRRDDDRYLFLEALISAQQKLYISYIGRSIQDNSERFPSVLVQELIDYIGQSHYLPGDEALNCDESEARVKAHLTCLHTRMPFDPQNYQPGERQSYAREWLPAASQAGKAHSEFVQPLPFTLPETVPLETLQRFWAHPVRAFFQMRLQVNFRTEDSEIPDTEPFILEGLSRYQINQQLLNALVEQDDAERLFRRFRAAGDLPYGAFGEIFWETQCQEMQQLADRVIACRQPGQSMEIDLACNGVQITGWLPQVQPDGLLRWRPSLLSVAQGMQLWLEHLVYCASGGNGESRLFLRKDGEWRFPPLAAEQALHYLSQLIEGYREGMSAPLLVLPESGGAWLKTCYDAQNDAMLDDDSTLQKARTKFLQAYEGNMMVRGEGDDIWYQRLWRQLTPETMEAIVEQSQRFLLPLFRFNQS
Sequence of Exodeoxyribonuclease V (P08394 whole entry): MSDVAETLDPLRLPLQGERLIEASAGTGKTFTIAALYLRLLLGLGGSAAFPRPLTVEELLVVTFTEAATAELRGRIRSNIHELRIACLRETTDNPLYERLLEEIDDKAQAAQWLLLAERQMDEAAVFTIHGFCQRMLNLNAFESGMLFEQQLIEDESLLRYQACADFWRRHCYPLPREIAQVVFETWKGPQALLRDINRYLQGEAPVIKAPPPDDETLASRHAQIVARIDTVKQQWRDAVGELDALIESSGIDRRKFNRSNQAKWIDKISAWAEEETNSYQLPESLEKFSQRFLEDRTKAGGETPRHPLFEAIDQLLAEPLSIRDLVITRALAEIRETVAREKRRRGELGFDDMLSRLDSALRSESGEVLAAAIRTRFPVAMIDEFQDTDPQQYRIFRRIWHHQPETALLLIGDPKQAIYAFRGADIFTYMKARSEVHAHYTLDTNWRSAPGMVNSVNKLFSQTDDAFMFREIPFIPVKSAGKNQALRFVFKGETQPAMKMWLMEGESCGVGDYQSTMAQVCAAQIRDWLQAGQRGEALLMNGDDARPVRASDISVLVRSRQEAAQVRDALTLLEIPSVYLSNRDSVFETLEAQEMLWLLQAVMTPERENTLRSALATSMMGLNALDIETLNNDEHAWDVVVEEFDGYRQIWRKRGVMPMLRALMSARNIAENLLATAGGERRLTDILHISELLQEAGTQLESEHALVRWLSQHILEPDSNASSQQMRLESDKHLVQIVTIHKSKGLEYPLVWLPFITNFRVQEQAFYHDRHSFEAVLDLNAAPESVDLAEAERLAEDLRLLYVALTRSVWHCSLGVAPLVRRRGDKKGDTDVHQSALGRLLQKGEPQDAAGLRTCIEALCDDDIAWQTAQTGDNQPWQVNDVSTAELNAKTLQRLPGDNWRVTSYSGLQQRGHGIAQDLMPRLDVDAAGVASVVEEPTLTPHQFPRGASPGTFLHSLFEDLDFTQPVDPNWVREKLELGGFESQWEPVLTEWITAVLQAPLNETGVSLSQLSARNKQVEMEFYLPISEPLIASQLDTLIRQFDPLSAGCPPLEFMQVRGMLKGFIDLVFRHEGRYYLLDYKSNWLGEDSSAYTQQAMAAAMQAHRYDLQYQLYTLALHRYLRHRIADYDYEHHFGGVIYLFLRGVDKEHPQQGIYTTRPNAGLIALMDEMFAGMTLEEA
Sequence of Ion channel NompC (Q7T1G6 whole entry): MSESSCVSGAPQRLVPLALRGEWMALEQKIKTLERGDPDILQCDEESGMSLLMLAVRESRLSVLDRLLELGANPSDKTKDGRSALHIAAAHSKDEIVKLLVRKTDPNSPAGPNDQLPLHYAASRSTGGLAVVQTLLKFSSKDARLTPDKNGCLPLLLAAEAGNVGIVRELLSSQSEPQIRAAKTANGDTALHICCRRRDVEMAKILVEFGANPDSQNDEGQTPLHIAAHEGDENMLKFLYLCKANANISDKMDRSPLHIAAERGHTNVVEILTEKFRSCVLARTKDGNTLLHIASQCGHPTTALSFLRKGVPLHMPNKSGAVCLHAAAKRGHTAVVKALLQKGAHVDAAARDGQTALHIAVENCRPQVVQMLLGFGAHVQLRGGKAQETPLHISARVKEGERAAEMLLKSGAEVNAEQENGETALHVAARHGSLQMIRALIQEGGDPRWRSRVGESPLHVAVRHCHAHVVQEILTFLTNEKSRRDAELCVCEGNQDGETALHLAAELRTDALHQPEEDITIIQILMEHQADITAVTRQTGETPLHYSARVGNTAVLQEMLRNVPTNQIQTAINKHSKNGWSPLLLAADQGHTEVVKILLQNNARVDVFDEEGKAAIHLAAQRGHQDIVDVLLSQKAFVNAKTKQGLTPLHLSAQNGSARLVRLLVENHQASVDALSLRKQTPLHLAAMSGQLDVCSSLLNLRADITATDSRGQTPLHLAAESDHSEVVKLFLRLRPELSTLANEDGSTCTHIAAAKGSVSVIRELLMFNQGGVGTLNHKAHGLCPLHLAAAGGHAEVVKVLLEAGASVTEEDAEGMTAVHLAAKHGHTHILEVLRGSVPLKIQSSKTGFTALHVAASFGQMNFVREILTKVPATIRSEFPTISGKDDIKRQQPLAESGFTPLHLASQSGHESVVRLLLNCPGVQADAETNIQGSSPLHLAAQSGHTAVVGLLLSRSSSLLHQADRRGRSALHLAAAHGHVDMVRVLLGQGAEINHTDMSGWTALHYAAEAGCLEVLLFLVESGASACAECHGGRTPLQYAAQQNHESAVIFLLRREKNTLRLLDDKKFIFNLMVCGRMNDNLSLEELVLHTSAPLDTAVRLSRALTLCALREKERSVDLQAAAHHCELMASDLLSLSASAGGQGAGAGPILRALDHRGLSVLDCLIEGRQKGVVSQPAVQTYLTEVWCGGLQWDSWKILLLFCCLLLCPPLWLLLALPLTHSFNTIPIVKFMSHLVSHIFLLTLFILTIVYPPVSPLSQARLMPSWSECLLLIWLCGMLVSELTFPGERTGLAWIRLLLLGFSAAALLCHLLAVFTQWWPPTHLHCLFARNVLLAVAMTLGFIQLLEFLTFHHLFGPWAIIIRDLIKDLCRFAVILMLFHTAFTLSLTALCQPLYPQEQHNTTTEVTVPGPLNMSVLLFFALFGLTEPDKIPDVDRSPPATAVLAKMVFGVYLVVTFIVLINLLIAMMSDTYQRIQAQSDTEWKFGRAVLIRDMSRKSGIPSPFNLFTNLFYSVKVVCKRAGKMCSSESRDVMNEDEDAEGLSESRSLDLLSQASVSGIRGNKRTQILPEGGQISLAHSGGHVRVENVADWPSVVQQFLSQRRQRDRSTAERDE

As a reminder, the IC50 is the point on the concentration scale where inhibition reaches its midpoint. In general, EC50 refers to the midpoint of the concentration-response curve. A word on the AC50: it is the concentration giving half of the maximal activity seen. Regarding `CC(=O)Nc1sc2c(c1-c1nc3ccccc3s1)CCN(C(C)C)C2`, the half-inhibitory concentration (IC50) in the experiment “cells” was 5.98 µM (active). Besides, the EC50 at Ion channel NompC was 25.1 µM (inactive); in experiment [2] it was > 1.13 µM (active); on Mucolipin-3, > 29.9 µM (not active); in the experiment with HEK293 [7], > 2.21 µM (active); with HEK293 [9], > 59.6 µM (inactive). Also, the CC50 in experiment [1] was 3.78 µM (active); in the experiment with HeLa it was 9.92 µM (active); in [3] it was 2.94 µM (active); in experiment [4], 3.05 µM (active); in experiment [5] it was 7.58 µM (active). The half-maximal activity concentration (AC50) with INS1 is 1.77 µM (active); in experiment [6] it was 4.53 µM (active); in experiment [8] it was 20.1 µM (active).

`CCSc1nc2ccccc2n1C(=O)c1ccc(S(=O)(=O)N2CCCCCC2)cc1`: the EC50 in experiment [10] was 12.5 µM (inactive).

As for `O=C(Cc1ccccc1)NCC(=O)OCC(=O)c1cccc([N+](=O)[O-])c1`, the IC50 in [11] is 23.2 µM (not active). Also, the EC50 at Beta-galactosidase was > 40 µM (inactive).

In the case of `CCOC(=O)c1cn(C2CC2)c2c(F)c(NCCCN(C)C)c(F)cc2c1=O`, the IC50 was > 119 µM (inactive) on Exodeoxyribonuclease V and 75.9 µM (inactive) in experiment [12]. Further, the EC50 in experiment [10] is 0.353 µM (active).

`Cc1ccoc1C(=O)Nc1cccc(C(=O)Nc2cccc(C(F)(F)F)c2)c1`: the IC50 on Hexokinase-1 and on Hexokinase HKDC1 was > 80 µM (inactive) throughout.

`COc1ccc(NC(=O)c2ccc(NC(=O)c3scnc3C)cc2)cc1`: the IC50 at Hexokinase-1 and at Hexokinase HKDC1 was > 80 µM (inactive) each time.
